Laboratory results taken from US5700799A, “Oxazolidinone antimicrobials containing substituted diazine moieties” (Pharmacia & Upjohn Company, priority 1996, dated 1997).
Where “and” joins values, the source holds several entries; their conditions need not be identical. Equal entries are not always repeated. Where two headings read alike, the source gives them in different places.

Tests used:
[1] = tested on: S. aureus UC 9213; assay: Murine Assay procedure: in vivo antimicrobial activity, survival of infected mice (S. aureus UC 9213); set-up: species or system Staphylococcus aureus (infected female mice); details: dosed 1 h and 5 h after i.p. infection, survival daily for six days; for ED50: Staphylococcus aureus, UC9213, 144 h, oral, probit
Method: (§1) Antimicrobial activity was tested in vivo using the Murine Assay procedure. Groups of female mice (six mice of 18-20 grams each) were injected intraperitoneally with bacteria which were thawed just prior to use and suspended in brain heart infusion with 4% brewers yeast (Staphylococcus aureus) or brain heart infusion (Streptococcus species). Antibiotic treatment at six dose levels per drug was administered one hour and five hours after affection by either oral intubation or subcutaneous routes. Survival was observed daily for six days. ED50 values based on mortality ratios were calculated using probit analysis. The subject compounds were compared against well-known antimicrobial as controls.

[2] = tested on: S. aureus UC 6685; assay: Murine Assay procedure: in vivo antimicrobial activity, survival of infected mice (S. aureus UC 6685); set-up: species or system Staphylococcus aureus (infected female mice); details: Staphylococcus aureus
Method: as §1

[3] = tested on: S. aureus UC 9271; assay: Murine Assay procedure: in vivo antimicrobial activity, survival of infected mice (S. aureus UC 9271); set-up: species or system Staphylococcus aureus (infected female mice); details: Staphylococcus aureus
Method: as §1

[4] = tested on: S. pyogenes UC 152; assay: Murine Assay procedure: in vivo antimicrobial activity, survival of infected mice (S. pyogenes UC 152); set-up: species or system S. pyogenes (infected female mice); details: Streptococcus pyogenes, UC152, 144 h, oral, dosed 1 h and 5 h after i.p. infection, survival daily for six days
[5] = tested on: microbial infections; assay: treatment of microbial infections (relative activity, test not given)

Structure (SMILES) | ED50 [1] [mg/kg] | also measured
CC(=O)CCC(=O)N1CCN(c2ccc(N3CC(CNC(C)=O)OC3=O)cc2F)CC1 (racemic) [Example 10, (±)-N-[[3-[4-[4-(1,4-Dioxopentyl)-1-piperazinyl]-3-fluorophenyl]-2-oxo-5-oxazolidinyl]methyl)Acetamide] | 9.4 | 
O=C(O)c1cn(C2CC2)c2cc(N3CCNCC3)c(F)cc2c1=O [Ciprofloxacin, reference compound] |  | ED50 ([2]; UC6685, sc, 144 h, read-out: Control, ED50, SC): 6.6 mg/kg
COC(=O)N1CCN(c2ccc(N3CC(CNC(C)=O)OC3=O)cc2F)CC1 (stereo not shown) [Example 1, 4-(4-(5-((Acetylamino)methyl)-2-oxo-3-oxazolidinyl)-2-fluorophenyl)-1-piperazinecarboxylic acid, methyl ester] | 3.8 | ED50 ([3]; UC9271, 144 h, S. aureus UC 9271, oral, dosed 1 h and 5 h after i.p. infection, survival daily for six days, read-out: ED50, PO): 4 mg/kg; ED50 ([2]; UC6685, 144 h, S. aureus UC 6685, oral, dosed 1 h and 5 h after i.p. infection, survival daily for six days, read-out: ED50, PO): 4 mg/kg; ED50 [4]: 2.3 mg/kg; activity relative to the Formula I compounds [5]: most active
COC(=O)N1CCN(c2ccc(N3CC(CNC(C)=O)OC3=O)cc2)CC1 (stereo not shown) [Example 3, 4-(4-(5-((Acetylamino)methyl)-2-oxo-3-oxazolidinyl)phenyl)-1-piperazinecarboxylic acid, methyl ester] | 10.4 | 
CC(=O)NCC1CN(c2ccc(N3CCN(CCC#N)CC3)c(F)c2)C(=O)O1 (stereo not shown) [Example 5, N-((3-(4-(3-Fluoro-4-(4-(2-Cyanoethyl)-1-piperazinyl))phenyl)-2-oxo-5-oxazolidinyl)methyl)-acetamide] | 10 | 
CC(=O)NCC1CN(c2ccc(N3CCN(C(=O)OCCO)CC3)c(F)c2)C(=O)O1 (stereo not shown) [Example 6, 4-(4-(5-((acetylamino)methyl)-2-oxo-3-oxazolidinyl)-2-fluorophenyl)-1-piperazinecarboxylic acid, 2-hydroxyethyl ester] | 12 | 
CC(=O)NCC1CN(c2ccc(N3CCN(C(=O)c4ccccc4)CC3)c(F)c2)C(=O)O1 (stereo not shown) [Example 7, N-((3-(4-(3-Fluoro-4-((benzoyl)-1-piperazinyl))phenyl)-2-oxo-5-oxazolidinyl)methyl)-acetamide] | 12 | 
CC(=O)NCC1CN(c2ccc(N3CCN(CC#N)CC3)c(F)c2)C(=O)O1 (stereo not shown) [Example 9] |  | activity relative to the Formula I compounds [5]: most active
COCCN1CCN(c2ccc(N3C[C@H](CNC(C)=O)OC3=O)cc2F)CC1 [Example 36, (S)-N-[[3-[3-fluoro-4-[4-(2-methoxyethyl)-1-piperazinyl]phenyl]-2-oxo-5-oxazolidinyl]methyl]acetamide] | 7.9 | 
COCCN1CCN(c2c(F)cc(N3C[C@H](CNC(C)=O)OC3=O)cc2F)CC1 [Example 37, (S)-N-[[3-[3,5-difluoro-4-[4-(2-methoxyethyl)-1-piperazinyl]phenyl]-2-oxo-5-oxazolidinyl]methyl]acetamide] | 12.6 | 
CN[C@H](CC(C)C)C(=O)N[C@H]1C(=O)N[C@@H](CC(N)=O)C(=O)N[C@H]2C(=O)N[C@H]3C(=O)N[C@H](C(=O)N[C@H](C(=O)O)c4cc(O)cc(O)c4-c4cc3ccc4O)[C@H](O)c3ccc(c(Cl)c3)Oc3cc2cc(c3O[C@@H]2O[C@H](CO)[C@@H](O)[C@H](O)[C@H]2O[C@H]2C[C@](C)(N)[C@H](O)[C@H](C)O2)Oc2ccc(cc2Cl)[C@H]1O [Vancomycin, reference compound] |  | Control, ED50, SC ([1]; control antibiotic, subcutaneous, 8640 min): 1.8 mg/kg and 1.9 mg/kg; ED50 ([3]; UC9271, sc, 144 h, read-out: Control, ED50, SC): 5.9 mg/kg
